pKi: −log10 of the molar value.

The subject of series [1] is CC(C)(COP(=O)(O)O)[C@@H](O)C(=O)NCCC(=O)O. As to the kind of experiment: purified protein. Particulars: CTP (MgCTP).
Another series addresses T1, MtCoaBC (Mycobacterium tuberculosis, UniProt P9WNZ1).
T1 construct: gene coaBC
As to the kind of experiment: coupled pyrophosphate assay with Morrison tight-binding fit; formed in situ from P-CJ and CTP; CD melting shift […] °C. It counts as biochemical.

The target in the next series is T2, SaCoaBC (Staphylococcus aureus, UniProt Q2G268).
T2 construct: gene coaBC
Briefly: coupled pyrophosphate assay with Morrison tight-binding fit; formed in situ from P-CJ and CTP; CD melting shift ~[…] °C. It counts as biochemical.

T1 sequence (P9WNZ1 whole entry): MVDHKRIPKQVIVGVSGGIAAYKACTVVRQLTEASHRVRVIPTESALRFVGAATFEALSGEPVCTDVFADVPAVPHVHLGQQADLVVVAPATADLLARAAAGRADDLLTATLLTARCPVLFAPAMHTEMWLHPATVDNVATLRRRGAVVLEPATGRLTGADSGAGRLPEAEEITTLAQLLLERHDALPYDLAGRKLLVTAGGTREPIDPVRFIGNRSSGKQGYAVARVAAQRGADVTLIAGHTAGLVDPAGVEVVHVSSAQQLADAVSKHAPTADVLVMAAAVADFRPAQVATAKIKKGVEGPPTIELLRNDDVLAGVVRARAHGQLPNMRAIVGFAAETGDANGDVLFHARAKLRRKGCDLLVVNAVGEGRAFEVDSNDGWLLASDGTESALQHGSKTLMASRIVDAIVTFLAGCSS
T2 sequence (Q2G268 entry or part of it): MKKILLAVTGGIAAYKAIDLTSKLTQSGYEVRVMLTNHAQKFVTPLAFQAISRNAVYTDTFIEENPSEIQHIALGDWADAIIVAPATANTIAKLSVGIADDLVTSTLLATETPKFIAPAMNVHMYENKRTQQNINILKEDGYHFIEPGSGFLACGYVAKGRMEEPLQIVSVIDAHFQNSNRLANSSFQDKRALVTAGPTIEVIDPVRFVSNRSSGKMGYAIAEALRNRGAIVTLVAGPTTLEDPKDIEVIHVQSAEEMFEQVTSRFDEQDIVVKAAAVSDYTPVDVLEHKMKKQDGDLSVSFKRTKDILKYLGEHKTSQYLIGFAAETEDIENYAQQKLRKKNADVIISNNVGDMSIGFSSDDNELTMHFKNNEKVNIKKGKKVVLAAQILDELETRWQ

Usually Km stands for the substrate concentration at which the rate is half of its maximum. As for “MtCoaBC (Mycobacterium tuberculosis H37Rv)”, in series [1], the Km is 33.2 ± 4.2 µM.
One may read the pKi as the negative decadic logarithm of the Ki, by convention in mol/L. With `CC(C)(COP(=O)(O)O)[C@@H](O)C(=O)N/C=C/C(=O)OP(=O)(O)OC[C@H]1O[C@@H](n2ccc(N)nc2=O)[C@H](O)[C@@H]1O` [compound 11, P-CJ-CMP], the pKi at MtCoaBC is 7.23; on SaCoaBC, 7.49.

Source of the values: paper PMC12172042, “Metabolic Activation versus Masked Prodrugs: Bisubstrate Mimic Inhibitors of CoaBC’s PPCS Activity in Mycobacterium tuberculosis and Staphylococcus aureus” (ACS Infectious Diseases, 2025).
